Assay: Solvent solubility of the coloring matter
Type: physicochemical
Conditions: ink produced as in Example 1

solubility of the coloring matter (in words)	Compound
low	COc1cc(N)c2c(c1N)C(=O)c1ccccc1C2=O [Comparative Example 2, reference compound]
low	CNc1cccc2c1C(=O)c1ccccc1C2=O [Comparative Example 3, reference compound]

Compound	solubility of the coloring matter (in words)
O=C1c2ccccc2C(=O)c2c1ccc(O)c2O [Comparative Example 1, reference compound]	low

Same assay, conditions: toluene, room temperature

solubility in toluene	Compound
≥ 40%	CCCCN(CCCC)c1cccc(Oc2cc(O)c3c(c2N)C(=O)c2ccccc2C3=O)c1 [compound 9]

Assay: Evaluation of water resistance (OD1 after/before dipping in water)
Type: physicochemical
Conditions: aqueous ink, ink production process Example 1; OD1 after dipping in water and air-drying
Experimental: (§1) Glycerin and water were added to the dispersion (A) of colored resin fine particles to obtain aqueous ink having a solid content of 15% by weight. This aqueous ink was used, and filled in an ink cartridge for a piezo-type ink jet printer, and printing and image recording were conducted with the same printer. The test was conducted on the following items.
(D) Evaluation of Water Resistance
With respect to a printed portion of a plain paper having a recorded image thereon for test, printing density (OD value) was measured with a reflection densitometer before dipping in water and after dipping in water and air-drying. Water resistance was evaluated upon comparing OD1.
OD1=(OD value after dipping in water and air-drying)/(OD value before dipping in water)×100[%]

Compound	D (Evaluation of water resistance)
Nc1ccccc1Oc1cc(O)c2c(c1N)C(=O)c1ccccc1C2=O [compound 4]	⊚ (OD value is 80 to less than 90%.)
COc1cc(N)c2c(c1N)C(=O)c1ccccc1C2=O [Comparative Example 2, reference compound]	Δ (OD value is 50 to less than 70%.)
CCCCN(CCCC)c1cccc(Oc2cc(O)c3c(c2N)C(=O)c2ccccc2C3=O)c1 [compound 9]	⊚⊚ (OD value is 90 to 100%.)
CN(C)c1cccc(Oc2cc(O)c3c(c2N)C(=O)c2ccccc2C3=O)c1 [compound 5]	⊚⊚ (OD value is 90 to 100%.)
CCNc1cccc(Oc2cc(O)c3c(c2N)C(=O)c2ccccc2C3=O)c1 [compound 6]	⊚⊚ (OD value is 90 to 100%.)
O=C1c2ccccc2C(=O)c2c1ccc(O)c2O [Comparative Example 1, reference compound]	X (OD value is less than 50%.)
CNc1cccc2c1C(=O)c1ccccc1C2=O [Comparative Example 3, reference compound]	◯ (OD value is 70 to less than 80%.)

Further lines, results first:

D (Evaluation of water resistance)	Compound
⊚⊚ (OD value is 90 to 100%.)	CCc1ccc2c(c1)C(=O)c1c(O)cc(Oc3cccc(N(CC)CC)c3)c(N)c1C2=O [compound 15]
⊚ (OD value is 80 to less than 90%.)	CCN(CC)c1cccc(Oc2cc(O)c3c(c2N)C(=O)c2ccc(OC)cc2C3=O)c1 [compound 16]
⊚⊚ (OD value is 90 to 100%.)	CCN(CC)c1cccc(Oc2cc(O)c3c(c2N)C(=O)c2cc(C)ccc2C3=O)c1 [compound 13]
⊚⊚ (OD value is 90 to 100%.)	CCCCN(CCCC)c1cccc(Oc2cc(O)c3c(c2N)C(=O)c2ccc(CC)cc2C3=O)c1 [compound 14]
⊚⊚ (OD value is 90 to 100%.)	CCCCCCN(CCCCCC)c1cccc(Oc2cc(O)c3c(c2N)C(=O)c2ccccc2C3=O)c1 [compound 10]

Same assay, conditions: aqueous ink, ink production process Example 2; OD1 after dipping in water and air-drying

Compound	D (Evaluation of water resistance)
Nc1ccccc1Oc1cc(O)c2c(c1N)C(=O)c1ccccc1C2=O [compound 4]	⊚ (OD value is 80 to less than 90%.)
CCCCN(CCCC)c1cccc(Oc2cc(O)c3c(c2N)C(=O)c2ccccc2C3=O)c1 [compound 9]	⊚⊚ (OD value is 90 to 100%.)
CN(C)c1cccc(Oc2cc(O)c3c(c2N)C(=O)c2ccccc2C3=O)c1 [compound 5]	⊚⊚ (OD value is 90 to 100%.)
CCNc1cccc(Oc2cc(O)c3c(c2N)C(=O)c2ccccc2C3=O)c1 [compound 6]	⊚⊚ (OD value is 90 to 100%.)

Other lines, results leading:

D (Evaluation of water resistance)	Compound
⊚⊚ (OD value is 90 to 100%.)	CCc1ccc2c(c1)C(=O)c1c(O)cc(Oc3cccc(N(CC)CC)c3)c(N)c1C2=O [compound 15]
⊚ (OD value is 80 to less than 90%.)	CCN(CC)c1cccc(Oc2cc(O)c3c(c2N)C(=O)c2ccc(OC)cc2C3=O)c1 [compound 16]
⊚⊚ (OD value is 90 to 100%.)	CCN(CC)c1cccc(Oc2cc(O)c3c(c2N)C(=O)c2cc(C)ccc2C3=O)c1 [compound 13]
⊚⊚ (OD value is 90 to 100%.)	CCCCN(CCCC)c1cccc(Oc2cc(O)c3c(c2N)C(=O)c2ccc(CC)cc2C3=O)c1 [compound 14]
⊚⊚ (OD value is 90 to 100%.)	CCCCCCN(CCCCCC)c1cccc(Oc2cc(O)c3c(c2N)C(=O)c2ccccc2C3=O)c1 [compound 10]

Assay: Evaluation of light fastness (xenon fadeometer, OD2)
Type: physicochemical
Conditions: not given
Experimental: as §1
(E) Evaluation of Light Fastness
Printing density (OD value) was measured using a xenon fadeometer (manufactured by Suga Shikenki) before irradiation and after 100 hours of irradiation. Light fastness was evaluated upon comparing OD2.
OD2=(OD value after irradiation)/(OD value before irradiation)×100[%]

light fastness (in words)	Compound
extremely bad	COc1cc(N)c2c(c1N)C(=O)c1ccccc1C2=O [Comparative Example 2, reference compound]
extremely bad	CNc1cccc2c1C(=O)c1ccccc1C2=O [Comparative Example 3, reference compound]

Same assay, conditions: aqueous ink, ink production process Example 1; OD2 after 100 hours of irradiation

Compound	E (Evaluation of light fastness)
Nc1ccccc1Oc1cc(O)c2c(c1N)C(=O)c1ccccc1C2=O [compound 4]	◯ (OD value is 70 to less than 80%.)
COc1cc(N)c2c(c1N)C(=O)c1ccccc1C2=O [Comparative Example 2, reference compound]	X (OD value is less than 50%.)
CCCCN(CCCC)c1cccc(Oc2cc(O)c3c(c2N)C(=O)c2ccccc2C3=O)c1 [compound 9]	⊚⊚ (OD value is 90 to 100%.)
CN(C)c1cccc(Oc2cc(O)c3c(c2N)C(=O)c2ccccc2C3=O)c1 [compound 5]	⊚ (OD value is 80 to less than 90%.)
CCNc1cccc(Oc2cc(O)c3c(c2N)C(=O)c2ccccc2C3=O)c1 [compound 6]	⊚ (OD value is 80 to less than 90%.)
O=C1c2ccccc2C(=O)c2c1ccc(O)c2O [Comparative Example 1, reference compound]	X (OD value is less than 50%.)
CNc1cccc2c1C(=O)c1ccccc1C2=O [Comparative Example 3, reference compound]	X (OD value is less than 50%.)

The remaining lines, values ahead:

E (Evaluation of light fastness)	Compound
⊚ (OD value is 80 to less than 90%.)	CCc1ccc2c(c1)C(=O)c1c(O)cc(Oc3cccc(N(CC)CC)c3)c(N)c1C2=O [compound 15]
⊚ (OD value is 80 to less than 90%.)	CCN(CC)c1cccc(Oc2cc(O)c3c(c2N)C(=O)c2ccc(OC)cc2C3=O)c1 [compound 16]
⊚⊚ (OD value is 90 to 100%.)	CCN(CC)c1cccc(Oc2cc(O)c3c(c2N)C(=O)c2cc(C)ccc2C3=O)c1 [compound 13]
⊚⊚ (OD value is 90 to 100%.)	CCCCN(CCCC)c1cccc(Oc2cc(O)c3c(c2N)C(=O)c2ccc(CC)cc2C3=O)c1 [compound 14]
⊚⊚ (OD value is 90 to 100%.)	CCCCCCN(CCCCCC)c1cccc(Oc2cc(O)c3c(c2N)C(=O)c2ccccc2C3=O)c1 [compound 10]

Assay: as above
Type: physicochemical
Conditions: aqueous ink, ink production process Example 2; OD2 after 100 hours of irradiation

Compound	E (Evaluation of light fastness)
Nc1ccccc1Oc1cc(O)c2c(c1N)C(=O)c1ccccc1C2=O [compound 4]	◯ (OD value is 70 to less than 80%.)
CCCCN(CCCC)c1cccc(Oc2cc(O)c3c(c2N)C(=O)c2ccccc2C3=O)c1 [compound 9]	⊚⊚ (OD value is 90 to 100%.)
CN(C)c1cccc(Oc2cc(O)c3c(c2N)C(=O)c2ccccc2C3=O)c1 [compound 5]	⊚ (OD value is 80 to less than 90%.)
CCNc1cccc(Oc2cc(O)c3c(c2N)C(=O)c2ccccc2C3=O)c1 [compound 6]	◯ (OD value is 70 to less than 80%.)

Now from value to compound:

E (Evaluation of light fastness)	Compound
⊚ (OD value is 80 to less than 90%.)	CCc1ccc2c(c1)C(=O)c1c(O)cc(Oc3cccc(N(CC)CC)c3)c(N)c1C2=O [compound 15]
⊚ (OD value is 80 to less than 90%.)	CCN(CC)c1cccc(Oc2cc(O)c3c(c2N)C(=O)c2ccc(OC)cc2C3=O)c1 [compound 16]
⊚⊚ (OD value is 90 to 100%.)	CCN(CC)c1cccc(Oc2cc(O)c3c(c2N)C(=O)c2cc(C)ccc2C3=O)c1 [compound 13]
⊚⊚ (OD value is 90 to 100%.)	CCCCN(CCCC)c1cccc(Oc2cc(O)c3c(c2N)C(=O)c2ccc(CC)cc2C3=O)c1 [compound 14]
⊚⊚ (OD value is 90 to 100%.)	CCCCCCN(CCCCCC)c1cccc(Oc2cc(O)c3c(c2N)C(=O)c2ccccc2C3=O)c1 [compound 10]

Assay: Evaluation of emulsification (visual, in production of emulsion ink)
Type: physicochemical
Conditions: ink produced as in Example 1
Experimental: as §1
(A) Evaluation of Emulsification
The emulsification condition in the production of emulsion ink was visually observed, and evaluated.

Compound	evaluation of emulsification (in words)
O=C1c2ccccc2C(=O)c2c1ccc(O)c2O [Comparative Example 1, reference compound]	poor emulsification

Assay: Absorption in toluene solution
Type: physicochemical
Conditions: not given

gram absorption coefficient (εg)	maximum absorption wavelength (λmax)	Compound
30,200 ml/g·cm	517 nm	CCCCN(CCCC)c1cccc(Oc2cc(O)c3c(c2N)C(=O)c2ccccc2C3=O)c1 [compound 9]

— patent publication US6800674B2, “Anthraquinone compound and water-based ink-jet recording ink containing the compound” (Mitsui Chemicals, Inc., priority 2000, dated 2004)
